Experimental data reported in paper PMC6813295, “A tumour-selective cascade activatable self-detained system for drug delivery and cancer imaging” (Nature Communications, 2019).
Where a SMILES comes first, the peptide text is derived from it. The star is where a group is joined. X1 = CC1(C)C(=CC=C2CCCC(C=CC3=[N+](CCCCCC(=O)O)c4ccccc4C3(C)C)=C2*)N(CCCCCC(=O)O)c2ccccc21

Tests used:
H460 cells = assay type: cell-based, human; settings: confocal
Procedure: Fig. 3 Recognition and self-assembly of molecule 1 in cells. a Western blots of XIAP expression in H460 and 293T cells. b Confocal images of H460 cells treated with or without energy-dependent inhibitor (oligomycin A, 20 μM) for 1 h, and followed by washing with PBS and treated with the molecule 1 (50 μM) for 1 h. c Statistical analysis of average fluorescence intensities in the cytoplasm of H460 cells from confocal images. Data are presented as the mean ± s.d. (n = 100). ***p < 0.001, p values were performed with one-way ANOVA followed by post hoc Tukey’s test for the indicated comparison. d Confocal images of time-dependent monitoring of H460 and 293T cells treated with the molecule 1 (50 μM) for 1 h followed by washing with PBS and replacing the medium and a further incubation up to 48 h. e Statistical analysis of average fluorescence intensities in the cytoplasm of H460 and 293T cells from confocal images with a timescale range of 1–48 h. Data are presented as the mean ± s.d. […] Finally, incubate up to 6 h and imaging by confocal microscope. g Schematic diagram illustrates the process of NBD fluorescence illumination. h Confocal images of H460 cells treatment with molecule 1-NBD (50 μM) for 1 h. i TEM images of ultrathin section of H460 cells treated with molecule I-1 (50 μM) and without the molecule I-1 for up to 12 h. […]

[1] = tested on: healthy female Balb/c nude mice; assay: Toxicology evaluation (blood biochemistry, haematology, histology); assay type: in vivo, mouse; settings: 14 mg/kg
Procedure: The healthy female Balb/c nude mice (6–8 weeks, n = 3) treated with molecule 1 was systematically investigated over 15 days. The mice were sacrificed after treatment with molecule 1 at a dose of 14 mg/kg on the 3rd, 7th and 15th day for blood collection. The blood biochemistry and haematology analyses were performed by Vital River Laboratory Animal Technology Co. Ltd. The histology evaluation was performed by Servicebio. All the toxicology evaluation was carried out in blind manner. […]
mg/kg, n=3) at 3, 7 and 15 d. The control group was healthy mice group without treatment. a, As major indicators of liver function, alanine aminotransferase (ALT), alkaline phosphatase (ALP) and aspartate aminotransferase (AST) levels were evaluated at different time point s. b, Total Protein (TP), albumin (ALB) and globulin (GLO) concentration and A/G (ALB/GLO) levels were evaluated at different time points. c, The creatinine (CRE) and blood urea nitrogen (BUN) levels, important indicators of kidney function, were evaluated at different time points. d, Time-course changes of haematology data, including i) white blood cells, ii) red blood cells, iii) haemoglobin, iv) mean corpuscular volume, v) mean corpuscular haemoglobin, vi) mean corpuscular haemoglobin concentration, vii) platelets and viii) haematocrit after treated with molecule 1 (14 mg/kg) treatment comparing with normal range (green backgrounds). Data are presented as mean ± s.d.
(n=3). e, Histology evaluation of the major organs (liver, spleen, kidney, heart and lung) were collected from the control group without treatment and molecule 1 treated (12 h post injection) group. Scale bars, 100 μm.

Structure (SMILES): CC[C@H](C)[C@H](NC(=O)[C@@H]1CCCN1C(=O)[C@@H](NC(=O)[C@H](C)N)C(C)C)C(=O)N[C@@H](C)C(=O)N[C@@H](CCC(N)=O)C(=O)N[C@@H](CCCCN)C(=O)N[C@@H](CC(=O)O)C(=O)N[C@@H](CCC(=O)O)C(=O)N[C@H](C(=O)N[C@@H](CC(=O)O)C(=O)N[C@@H](CCCCN)C(=O)N[C@@H](CC(C)C)C(=O)N[C@H](C(=O)N[C@@H](Cc1ccccc1)C(=O)N[C@@H](Cc1ccccc1)C(=O)N[C@@H](C)C(=O)N[C@@H](CCC(=O)O)C(=O)N[C@@H](CSC1=C(C=CC2=[N+](CCCCCC(=O)O)c3ccccc3C2(C)C)CCCC1=CC=C1N(CCCCCC(=O)O)c2ccccc2C1(C)C)C(=O)NCC(=O)O)C(C)C)C(C)C [molecule 1] (H-AVPIAQKDEVDKLVFFAEC(X1)G-OH)
- uptake pathway into cells (H460 cells; H460, filipin III 5 μg/ml, chlorpromazine 10 μg/ml, amiloride 10 μM, 1 h, 50 μM 2 h, 37 °C): caveolin-mediated endocytic pathway
- internalization into cells, energy dependence (H460 cells; H460, oligomycin A 20 μM 1 h, then 50 μM 1 h, n = 100): energy-dependent
- histology evaluation of organs [1]: slightly enlarged splenic corpuscle and expanded germinal centres
- signs of acute toxicity within 15 days [1]: did not notice any obvious signs of acute toxicity
- creatinine (CRE) and blood urea nitrogen (BUN) levels ([1]; days 3, 7 and 15, n = 3): within the normal range
- liver function markers (ALT, AST, ALP, albumin concentration) ([1]; days 3, 7 and 15, n = 3): within reference normal ranges
